In the supplement of paper PMC10307832 one finds relative viability data, which are given here for seven cell lines.

Compound in the test “Metformin + Navitoclax”: CN(C)C(=N)NC(=N)N [Metformin] + CC1(C)CCC(c2ccc(Cl)cc2)=C(CN2CCN(c3ccc(C(=O)NS(=O)(=O)c4ccc(N[C@H](CCN5CCOCC5)CSc5ccccc5)c(S(=O)(=O)C(F)(F)F)c4)cc3)CC2)C1 [Navitoclax] (partner 0.5 µM)
As to the kind of experiment: relative viability (nuclei count vs DMSO), 5 days (fraction); higher = more cells survive. In short, it runs like this: (§1)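 Relative viability was taken as the ratio of nuclei in treated wells to nuclei in vehicle wells. Lung cancer cell lines in 1536-well plates received compounds by pin tool one day after seeding, either one drug alone or a fixed anchor-drug dose plus five library-drug doses (not always all listed) in √10 steps. Nuclei were counted on 4× images after 5 days of treatment, and values are medians of duplicate plates.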

Compound in the test “Apatinib + Foretinib”: N#CC1(c2ccc(NC(=O)c3cccnc3NCc3ccncc3)cc2)CCCC1 [Apatinib] + COc1cc2c(Oc3ccc(NC(=O)C4(C(=O)Nc5ccc(F)cc5)CC4)cc3F)ccnc2cc1OCCCN1CCOCC1 [Foretinib] (partner 0.25 µM)
Described as above. In short, it runs like this:
as §1

Turning to NCI-H1793, the relative viability in the test with Metformin + Navitoclax (first compound 10 µM) was 0.335; with Metformin + Navitoclax (first compound 31.62 µM), 0.395; with Metformin + Navitoclax (first compound 100 µM) it was 0.482; in the test with Metformin + Navitoclax (first compound 316.23 µM), 0.442; with Metformin + Navitoclax (first compound 1000 µM), 0.489; with Apatinib + Foretinib (first compound 0.08 µM) it was 0.761. For the same cell line, the relative viability in the test with Apatinib + Foretinib (first compound 0.253 µM) worked out at 0.585; with Apatinib + Foretinib (first compound 0.8 µM), 0.507; with Apatinib + Foretinib (first compound 2.53 µM), 0.601; with Apatinib + Foretinib (first compound 8 µM) it was 0.475.

Take A549: the relative viability came to 0.895 with Metformin + Navitoclax (first compound 10 µM); 1.03 with Metformin + Navitoclax (first compound 31.62 µM); 1.04 in the test with Metformin + Navitoclax (first compound 100 µM); 0.843 in the test with Metformin + Navitoclax (first compound 316.23 µM); 0.297 with Metformin + Navitoclax (first compound 1000 µM); 0.945 with Apatinib + Foretinib (first compound 0.08 µM). Moreover, the relative viability with Apatinib + Foretinib (first compound 0.253 µM) stood at 0.933; with Apatinib + Foretinib (first compound 0.8 µM), 1; with Apatinib + Foretinib (first compound 2.53 µM), 0.887; in the test with Apatinib + Foretinib (first compound 8 µM), 0.855.

As for LCLC-97TM1, the relative viability with Metformin + Navitoclax (first compound 10 µM) was determined as 0.44; with Metformin + Navitoclax (first compound 31.62 µM) it was 0.339; with Metformin + Navitoclax (first compound 100 µM) it was 0.547; with Metformin + Navitoclax (first compound 316.23 µM), 0.276; with Metformin + Navitoclax (first compound 1000 µM), 0.486; with Apatinib + Foretinib (first compound 0.08 µM), 0.907. Moreover, the relative viability came to 0.882 in the test with Apatinib + Foretinib (first compound 0.253 µM), 0.944 in the test with Apatinib + Foretinib (first compound 0.8 µM), 0.959 with Apatinib + Foretinib (first compound 2.53 µM) and 0.584 in the test with Apatinib + Foretinib (first compound 8 µM).

For NCI-H1944, the relative viability in the test with Metformin + Navitoclax (first compound 10 µM) amounted to 0.968; with Metformin + Navitoclax (first compound 31.62 µM), 1.04; with Metformin + Navitoclax (first compound 100 µM), 1.04; with Metformin + Navitoclax (first compound 316.23 µM) it was 0.966; with Metformin + Navitoclax (first compound 1000 µM), 1.07; in the test with Apatinib + Foretinib (first compound 0.08 µM) it was 0.869. Moreover, the relative viability was 0.942 in the test with Apatinib + Foretinib (first compound 0.253 µM), 0.691 with Apatinib + Foretinib (first compound 0.8 µM), 0.807 in the test with Apatinib + Foretinib (first compound 2.53 µM) and 0.603 with Apatinib + Foretinib (first compound 8 µM).

Take 201T: the relative viability turned out to be 1.26 with Metformin + Navitoclax (first compound 31.62 µM); 1.17 with Metformin + Navitoclax (first compound 100 µM); 1.16 in the test with Metformin + Navitoclax (first compound 316.23 µM); 1.17 with Metformin + Navitoclax (first compound 1000 µM); 1.15 in the test with Apatinib + Foretinib (first compound 0.08 µM); 1.11 with Apatinib + Foretinib (first compound 0.253 µM). Further, the relative viability in the test with Apatinib + Foretinib (first compound 0.8 µM) amounted to 1.05; with Apatinib + Foretinib (first compound 2.53 µM) it was 1.06; in the test with Apatinib + Foretinib (first compound 8 µM) it was 0.813.

As to CAL-12T, the relative viability in the test with Metformin + Navitoclax (first compound 31.62 µM) was 1.35; with Metformin + Navitoclax (first compound 100 µM) it was 1.14; with Metformin + Navitoclax (first compound 316.23 µM) it was 1.29; with Metformin + Navitoclax (first compound 1000 µM), 1.09; with Apatinib + Foretinib (first compound 0.08 µM), 1.3; with Apatinib + Foretinib (first compound 0.253 µM), 1.14. Further, the relative viability came to 1.11 in the test with Apatinib + Foretinib (first compound 0.8 µM), 0.992 with Apatinib + Foretinib (first compound 2.53 µM) and 0.974 in the test with Apatinib + Foretinib (first compound 8 µM).

Turning to EBC-1, the relative viability in the test with Metformin + Navitoclax (first compound 10 µM) turned out to be 0.364; with Metformin + Navitoclax (first compound 31.62 µM) it was 0.405; with Metformin + Navitoclax (first compound 100 µM), 0.356; with Metformin + Navitoclax (first compound 316.23 µM), 0.362; with Metformin + Navitoclax (first compound 1000 µM) it was 0.442; with Apatinib + Foretinib (first compound 0.08 µM) it was 0.111. The relative viability with Apatinib + Foretinib (first compound 0.253 µM) is 0.0844; with Apatinib + Foretinib (first compound 0.8 µM), 0.0979; with Apatinib + Foretinib (first compound 2.53 µM), 0.0995; with Apatinib + Foretinib (first compound 8 µM) it was 0.1.
